{"source": "ChEMBL document CHEMBL1139602", "about": "“Biological evaluation of Tyr6 and Ser7 modified drosocin analogues” (2005)", "key": {"Cell line": {"test_system": "Cell line", "experiment": "Percent of intact peptide after 8 hr of digestion in 25% human serum", "type": "functional"}, "Escherichia coli": {"test_system": "Escherichia coli", "experiment": "Minimum inhibitory concentration against Escherichia coli ATCC 11775 strain", "type": "functional"}}, "note": "Square brackets hold non-standard residues; d marks the D form. Peptide text beside a SMILES is read from it. Ava = NCCCCC(=O)O; GABA = NCCCC(=O)O; βAla = NCCC(=O)O"}
{"molecule": "CC[C@H](C)[C@H](NC(=O)[C@@H]1CCCN1C(=O)[C@H](CCCN=C(N)N)NC(=O)[C@@H]1CCCN1C(=O)[C@H](Cc1c[nH]cn1)NC(=O)[C@H](CO)NC(=O)[C@@H](NC(=O)[C@@H]1CCCN1C(=O)[C@H](CCCN=C(N)N)NC(=O)[C@@H]1CCCN1C(=O)[C@H](CO)NC(=O)[C@@H](Cc1ccc(O)cc1)NC(=O)[C@@H]1CCCN1C(=O)[C@H](CCCN=C(N)N)NC(=O)[C@@H]1CCCN1C(=O)[C@H](CCCCN)NC(=O)CN)[C@@H](C)O)C(=O)N[C@@H](CCCN=C(N)N)C(=O)N[C@H](C=O)C(C)C", "values": [{"measurement": "Intact", "setting": "Cell line", "result": 16, "unit": "%"}, {"measurement": "MIC", "setting": "Escherichia coli", "result": 6.3, "unit": "µM"}]}
{"molecule": "CC[C@H](C)[C@H](NC(=O)[C@@H]1CCCN1C(=O)[C@H](CCCN=C(N)N)NC(=O)[C@@H]1CCCN1C(=O)[C@H](Cc1c[nH]cn1)NC(=O)[C@H](CO)NC(=O)[C@@H](NC(=O)[C@@H]1CCCN1C(=O)[C@H](CCCN=C(N)N)NC(=O)[C@@H]1CCCN1C(=O)[C@H](CO)NC(=O)C[C@@H](Cc1ccc(O)cc1)NC(=O)[C@@H]1CCCN1C(=O)[C@H](CCCN=C(N)N)NC(=O)[C@@H]1CCCN1C(=O)[C@H](CCCCN)NC(=O)CN)[C@@H](C)O)C(=O)N[C@@H](CCCN=C(N)N)C(=O)N[C@H](C=O)C(C)C", "values": [{"measurement": "Intact", "setting": "Cell line", "result": 2, "unit": "%"}, {"measurement": "MIC", "setting": "Escherichia coli", "result": 3.1, "unit": "µM"}]}
{"molecule": "CC[C@H](C)[C@H](NC(=O)[C@@H]1CCCN1C(=O)[C@H](CCCN=C(N)N)NC(=O)[C@@H]1CCCN1C(=O)[C@H](Cc1c[nH]cn1)NC(=O)[C@H](CO)NC(=O)[C@@H](NC(=O)[C@@H]1CCCN1C(=O)[C@H](CCCN=C(N)N)NC(=O)[C@@H]1CCCN1C(=O)[C@@H](CO)NC(=O)[C@@H](Cc1ccc(O)cc1)NC(=O)[C@@H]1CCCN1C(=O)[C@H](CCCN=C(N)N)NC(=O)[C@@H]1CCCN1C(=O)[C@H](CCCCN)NC(=O)CN)[C@@H](C)O)C(=O)N[C@@H](CCCN=C(N)N)C(=O)N[C@H](C=O)C(C)C", "values": [{"measurement": "Intact", "setting": "Cell line", "result": 17, "unit": "%"}, {"measurement": "MIC", "setting": "Escherichia coli", "result": 25, "unit": "µM"}]}
{"molecule": "CC[C@H](C)[C@H](NC(=O)CNC(=O)[C@H](Cc1ccc(O)cc1)NC(=O)[C@H](CC(=O)O)NC(=O)[C@@H](NC(=O)[C@H](CO)NC(=O)CNC(=O)[C@H](CC(=O)O)NC(=O)[C@@H](NC(=O)[C@@H](N)CC(N)=O)[C@@H](C)O)[C@@H](C)O)C(=O)N[C@@H](CC(C)C)C(=O)N[C@@H](CCC(N)=O)C(=O)N[C@H](C(=O)N[C@@H](CC(N)=O)C(=O)N[C@@H](CO)C(=O)N[C@H](C=O)CCCN=C(N)N)[C@@H](C)CC", "values": [{"measurement": "MIC", "setting": "Escherichia coli", "result": "> 100", "unit": "µM"}]}
{"molecule": "CC[C@H](C)[C@H](NC(=O)[C@@H]1CCCN1C(=O)[C@H](CCCN=C(N)N)NC(=O)[C@@H]1CCCN1C(=O)[C@H](Cc1c[nH]cn1)NC(=O)[C@H](CO)NC(=O)[C@@H](NC(=O)[C@@H]1CCCN1C(=O)[C@H](CCCN=C(N)N)NC(=O)[C@@H]1CCCN1C(=O)[C@@H](CO)NC(=O)[C@H](Cc1ccc(O)cc1)NC(=O)[C@@H]1CCCN1C(=O)[C@H](CCCN=C(N)N)NC(=O)[C@@H]1CCCN1C(=O)[C@H](CCCCN)NC(=O)CN)[C@@H](C)O)C(=O)N[C@@H](CCCN=C(N)N)C(=O)N[C@H](C=O)C(C)C", "values": [{"measurement": "Intact", "setting": "Cell line", "result": 1, "unit": "%"}, {"measurement": "MIC", "setting": "Escherichia coli", "result": 3.1, "unit": "µM"}]}
{"molecule": "CC[C@H](C)[C@H](NC(=O)[C@@H]1CCCN1C(=O)[C@H](CCCN=C(N)N)NC(=O)[C@@H]1CCCN1C(=O)[C@H](Cc1c[nH]cn1)NC(=O)[C@H](CO)NC(=O)[C@@H](NC(=O)[C@@H]1CCCN1C(=O)[C@H](CCCN=C(N)N)NC(=O)[C@@H]1CCCN1C(=O)C[C@@H](CO)NC(=O)[C@H](Cc1ccc(O)cc1)NC(=O)[C@@H]1CCCN1C(=O)[C@H](CCCN=C(N)N)NC(=O)[C@@H]1CCCN1C(=O)[C@H](CCCCN)NC(=O)CN)[C@@H](C)O)C(=O)N[C@@H](CCCN=C(N)N)C(=O)N[C@H](C=O)C(C)C", "values": [{"measurement": "Intact", "setting": "Cell line", "result": 31, "unit": "%"}, {"measurement": "MIC", "setting": "Escherichia coli", "result": 3.1, "unit": "µM"}]}
{"molecule": "CC[C@H](C)[C@H](NC(=O)[C@@H]1CCCN1C(=O)[C@H](CCCN=C(N)N)NC(=O)[C@@H]1CCCN1C(=O)[C@H](Cc1c[nH]cn1)NC(=O)[C@H](CO)NC(=O)[C@@H](NC(=O)[C@@H]1CCCN1C(=O)[C@H](CCCN=C(N)N)NC(=O)[C@@H]1CCCN1C(=O)[C@H](CO)NC(=O)[C@H](Cc1ccccc1)NC(=O)[C@@H]1CCCN1C(=O)[C@H](CCCN=C(N)N)NC(=O)[C@@H]1CCCN1C(=O)[C@H](CCCCN)NC(=O)CN)[C@@H](C)O)C(=O)N[C@@H](CCCN=C(N)N)C(=O)N[C@H](C=O)C(C)C", "note": "(H-GKPRPFSPRPTSHPRPIRV-aldehyde)", "values": [{"measurement": "Intact", "setting": "Cell line", "result": 19, "unit": "%"}, {"measurement": "MIC", "setting": "Escherichia coli", "result": 3.1, "unit": "µM"}]}
{"molecule": "CC[C@H](C)[C@H](NC(=O)[C@@H]1CCCN1C(=O)[C@H](CCCN=C(N)N)NC(=O)[C@@H]1CCCN1C(=O)[C@H](Cc1c[nH]cn1)NC(=O)[C@H](CO)NC(=O)[C@@H](NC(=O)[C@@H]1CCCN1C(=O)[C@H](CCCN=C(N)N)NC(=O)[C@@H]1CCCN1C(=O)[C@@H](NC(=O)[C@H](Cc1ccccc1)NC(=O)[C@@H]1CCCN1C(=O)[C@H](CCCN=C(N)N)NC(=O)[C@@H]1CCCN1C(=O)[C@H](CCCCN)NC(=O)CN)[C@@H](C)O)[C@@H](C)O)C(=O)N[C@@H](CCCN=C(N)N)C(=O)N[C@H](C=O)C(C)C", "note": "(H-GKPRPFTPRPTSHPRPIRV-aldehyde)", "values": [{"measurement": "Intact", "setting": "Cell line", "result": 26, "unit": "%"}, {"measurement": "MIC", "setting": "Escherichia coli", "result": 3.1, "unit": "µM"}]}
{"molecule": "CC[C@H](C)[C@H](NC(=O)[C@@H]1CCCN1C(=O)[C@H](CCCN=C(N)N)NC(=O)[C@@H]1CCCN1C(=O)[C@H](Cc1c[nH]cn1)NC(=O)[C@H](CO)NC(=O)[C@@H](NC(=O)[C@@H]1CCCN1C(=O)[C@H](CCCN=C(N)N)NC(=O)[C@@H]1CCCN1C(=O)[C@H](COC)NC(=O)[C@H](Cc1ccc(O)cc1)NC(=O)[C@@H]1CCCN1C(=O)[C@H](CCCN=C(N)N)NC(=O)[C@@H]1CCCN1C(=O)[C@H](CCCCN)NC(=O)CN)[C@@H](C)O)C(=O)N[C@@H](CCCN=C(N)N)C(=O)N[C@H](C=O)C(C)C", "note": "(H-GKPRPYS(Me)PRPTSHPRPIRV-aldehyde)", "values": [{"measurement": "Intact", "setting": "Cell line", "result": 11, "unit": "%"}, {"measurement": "MIC", "setting": "Escherichia coli", "result": 25, "unit": "µM"}]}
{"molecule": "CC[C@H](C)[C@H](NC(=O)[C@@H]1CCCN1C(=O)[C@H](CCCN=C(N)N)NC(=O)[C@@H]1CCCN1C(=O)[C@H](Cc1c[nH]cn1)NC(=O)[C@H](CO)NC(=O)[C@@H](NC(=O)[C@@H]1CCCN1C(=O)[C@H](CCCN=C(N)N)NC(=O)[C@@H]1CCCN1C(=O)[C@@H](NC(=O)[C@H](Cc1ccc(O)cc1)NC(=O)[C@@H]1CCCN1C(=O)[C@H](CCCN=C(N)N)NC(=O)[C@@H]1CCCN1C(=O)[C@H](CCCCN)NC(=O)CN)[C@@H](C)O)[C@@H](C)O)C(=O)N[C@@H](CCCN=C(N)N)C(=O)N[C@H](C=O)C(C)C", "note": "(H-GKPRPYTPRPTSHPRPIRV-aldehyde)", "values": [{"measurement": "Intact", "setting": "Cell line", "result": 15, "unit": "%"}, {"measurement": "MIC", "setting": "Escherichia coli", "result": 1.6, "unit": "µM"}]}
{"molecule": "CC[C@H](C)[C@H](NC(=O)[C@@H]1CCCN1C(=O)[C@H](CCCN=C(N)N)NC(=O)[C@@H]1CCCN1C(=O)[C@H](Cc1c[nH]cn1)NC(=O)[C@H](CO)NC(=O)[C@@H](NC(=O)[C@@H]1CCCN1C(=O)[C@H](CCCN=C(N)N)NC(=O)[C@@H]1CCCN1C(=O)[C@@H](NC(=O)[C@H](Cc1ccc(O)cc1)NC(=O)[C@@H]1CCCN1C(=O)[C@H](CCCN=C(N)N)NC(=O)[C@@H]1CCCN1C(=O)[C@H](CCCCN)NC(=O)CN)C(C)C)[C@@H](C)O)C(=O)N[C@@H](CCCN=C(N)N)C(=O)N[C@H](C=O)C(C)C", "note": "(H-GKPRPYVPRPTSHPRPIRV-aldehyde)", "values": [{"measurement": "MIC", "setting": "Escherichia coli", "result": 12.5, "unit": "µM"}]}
{"molecule": "CC[C@H](C)[C@H](NC(=O)[C@@H]1CCCN1C(=O)[C@H](CCCN=C(N)N)NC(=O)[C@@H]1CCCN1C(=O)[C@H](Cc1c[nH]cn1)NC(=O)[C@H](CO)NC(=O)[C@@H](NC(=O)[C@@H]1CCCN1C(=O)[C@H](CCCN=C(N)N)NC(=O)[C@@H]1CCCN1C(=O)[C@@H](NC(=O)[C@H](Cc1ccc(O)cc1)NC(=O)[C@@H]1CCCN1C(=O)[C@H](CCCN=C(N)N)NC(=O)[C@@H]1CCCN1C(=O)[C@H](CCCCN)NC(=O)CCCCN)[C@@H](C)O)[C@@H](C)O)C(=O)N[C@@H](CCCN=C(N)N)C(=O)N[C@H](C(=O)O)C(C)C", "note": "(H-[Ava]KPRPYTPRPTSHPRPIRV-OH)", "values": [{"measurement": "Intact", "setting": "Cell line", "result": 84, "unit": "%"}, {"measurement": "MIC", "setting": "Escherichia coli", "result": 6.3, "unit": "µM"}]}
{"molecule": "CC[C@H](C)[C@H](NC(=O)[C@@H]1CCCN1C(=O)[C@H](CCCN=C(N)N)NC(=O)[C@@H]1CCCN1C(=O)[C@H](Cc1c[nH]cn1)NC(=O)[C@H](CO)NC(=O)[C@@H](NC(=O)[C@@H]1CCCN1C(=O)[C@H](CCCN=C(N)N)NC(=O)[C@@H]1CCCN1C(=O)[C@@H](NC(=O)[C@H](Cc1ccc(O)cc1)NC(=O)[C@@H]1CCCN1C(=O)[C@H](CCCN=C(N)N)NC(=O)[C@@H]1CCCN1C(=O)[C@H](CCCCN)NC(=O)CCCN)C(C)C)[C@@H](C)O)C(=O)N[C@@H](CCCN=C(N)N)C(=O)N[C@H](C=O)C(C)C", "note": "(H-[GABA]KPRPYVPRPTSHPRPIRV-aldehyde)", "values": [{"measurement": "Intact", "setting": "Cell line", "result": 76, "unit": "%"}, {"measurement": "MIC", "setting": "Escherichia coli", "result": 6.3, "unit": "µM"}]}
{"molecule": "CC[C@H](C)[C@H](NC(=O)[C@@H]1CCCN1C(=O)[C@H](CCCN=C(N)N)NC(=O)[C@@H]1CCCN1C(=O)[C@H](Cc1c[nH]cn1)NC(=O)[C@H](CO)NC(=O)[C@@H](NC(=O)[C@@H]1CCCN1C(=O)[C@H](CCCN=C(N)N)NC(=O)[C@@H]1CCCN1C(=O)[C@@H](NC(=O)[C@H](Cc1ccc(O)cc1)NC(=O)[C@@H]1CCCN1C(=O)[C@H](CCCN=C(N)N)NC(=O)[C@@H]1CCCN1C(=O)[C@H](CCCCN)NC(=O)CCN)[C@@H](C)O)[C@@H](C)O)C(=O)N[C@@H](CCCN=C(N)N)C(=O)N[C@H](C(=O)O)C(C)C", "note": "(H-[βAla]KPRPYTPRPTSHPRPIRV-OH)", "values": [{"measurement": "Intact", "setting": "Cell line", "result": 87, "unit": "%"}, {"measurement": "MIC", "setting": "Escherichia coli", "result": 3.1, "unit": "µM"}]}
{"molecule": "H-GKPRPYSPRPTSHPRPIRV-OH [DROSOCIN]", "values": [{"measurement": "Intact", "setting": "Cell line", "result": 3, "unit": "%"}, {"measurement": "MIC", "setting": "Escherichia coli", "result": 6.3, "unit": "µM"}]}
